Reference: EP0047977A2, “Cephalosporin derivatives, process for their preparation, pharmaceutical compositions containing them and their use” (CIBA-GEIGY AG, priority 1980, dated 1982)
Values after ≈ are worked out from the molar mass of the structure shown.

Legend:
[1] = test system: Escherichia coli 205; assay: Antibiotic activity in vitro, agar dilution method in DST agar (MIC); type: cell-based
[2] = test system: Pseudomonas aeruginosa ATCC 12055; assay: as above; type: cell-based; conditions: ATCC12055
[3] = test system: Escherichia coli 205 K 1075; assay: Chemotherapeutic efficacy in vivo against systemic infection in the mouse (ED50); conditions: 205K1075, sc; s.c.; systemic infection with Escherichia coli 205 K 1075 in female SPF, MF2 mice
Excerpt: (§1) B. Die chemotherapeutische Wirksamkeit in vivo gegen systemische Infektionen in weiblichen SPF, MF2 Mäusen wurde nach der Methode von Zak, 0., et al., 1979, Drugs Exptl. Clin. Res. 5, 45-59, ermittelt. Die gefundenen ED50-Werte in Milligramm Substanz pro Kilogramm Maus (mg/kg) gegen eine Anzahl von Mikroorganismen werden für die subcutan (s.c.) applizierten Testverbindungen in der Tabelle 2 angegeben.

[4] = test system: Pseudomonas aeruginosa ATCC 12055; assay: as above; conditions: ATCC12055, sc; s.c.; systemic infection with Pseudomonas aeruginosa ATCC 12055 in female SPF, MF2 mice
Excerpt: as §1

[5] = test system: Streptococcus pyogenes Aronson; assay: Antibiotic activity in vitro, agar dilution method in DST agar (MIC); type: cell-based
[6] = test system: Clostridium perfringens (anaerob); assay: microbe, parasite or virus in culture; type: cell-based

| Compound | MIC [1] [µg/mL] | MIC [2] [µg/mL] | ED50 [3] [mg/kg] | ED50 [4] [mg/kg] | MIC [5] [µg/mL] | MIC [6] [µg/mL] |
| --- | --- | --- | --- | --- | --- | --- |
| CO/N=C(\C(=O)N[C@@H]1C(=O)N2C(C(=O)[O-])=C(C[n+]3ccc(C(=O)O)cc3)CS[C@H]12)c1nsc(N)n1 [Verbindung 1, 7ß-[2-(5-Amino-1,2,4-thiadiazol-3-yl)-2-Z-methoxyiminoacetamido]-3-(4-carboxypyridiniomethyl)-3-cephem-4-carboxylat] | 0.05 (≈ 0.0962 µM) | 1 (≈ 1.92 µM) | 0.9 | 6 | 0.1 (≈ 0.192 µM) |  |
| CO/N=C(\C(=O)N[C@@H]1C(=O)N2C(C(=O)[O-])=C(C[n+]3cccc(Br)c3)CS[C@H]12)c1nsc(N)n1 [Verbindung 5, 7β-[2-(5-Amino-1,2,4-thiadiazol-3-yl)-2-Z-methoxyiminoacetamido]-3--(3-brompyridiniomethyl)-3-cephem-4-carboxylat] | 0.1 (≈ 0.18 µM) | 0.5 (≈ 0.902 µM) | 0.9 | 10 to 30 | 0.05 (≈ 0.0902 µM) | 0.01 (≈ 0.018 µM) |
| CO/N=C(\C(=O)N[C@@H]1C(=O)N2C(C(=O)[O-])=C(C[n+]3cccn3C)CS[C@H]12)c1nsc(N)n1 [Verbindung 4, 7β-[2-(5-Amino-1,2,4-thiadiazol-3-yl)-2-Z-methoxyiminoacetamido]-3-(2-methyl-1-pyrazoliomethyl)-3-cephem-4-carboxylat] | 0.1 (≈ 0.209 µM) | 0.5 (≈ 1.04 µM) | 2.4 | 30 | 0.1 (≈ 0.209 µM) |  |
| CO/N=C(\C(=O)N[C@@H]1C(=O)N2C(C(=O)[O-])=C(C[n+]3ccc(CO)cc3)CS[C@H]12)c1nsc(N)n1 [Verbindung 6, 7ß-[2-(5-Amino-1,2,4-thiadiazol-3-yl)-2-Z-methoxyiminoacetamido]-3-(4-hydroxymethylpyridiniomethyl)-3-cephem-4-carboxylat] | 0.05 (≈ 0.0989 µM) | 0.1 (≈ 0.198 µM) |  | 3 to 10 |  | 0.01 (≈ 0.0198 µM) |
| CC(C)(O/N=C(\C(=O)N[C@@H]1C(=O)N2C(C(=O)[O-])=C(C[n+]3cccc(CC(=O)O)c3)CS[C@H]12)c1nsc(N)n1)C(=O)O [Verbindung 2, 7β-[2-(5-Amino-1,2,4-thiadiazol-3-yl)-2-Z-2-carboxyprop-2-yloxy-iminoacetamido]-3-(3-carboxymethylpyridiniomethyl)-3-cephem-4-carboxylat] | 1 (≈ 1.65 µM) | 0.5 (≈ 0.826 µM) | 2 | ≥ 30 | 1 (≈ 1.65 µM) | 0.1 (≈ 0.165 µM) |
| Cn1ccc[n+]1CC1=C(C(=O)[O-])N2C(=O)[C@@H](NC(=O)/C(=N\OC(C)(C)C(=O)O)c3nsc(N)n3)[C@H]2SC1 [Verbindung 3, 7ß-[2-(5-Amino-1,2,4-thiadiazol-3-yl)-2-Z-2-carboxyprop-2-yloxy-iminoacetamido]-3-(2-methyl-1-pyrazoliomethyl)-3-cephem-4-carboxylat] | 0.5 (≈ 0.908 µM) | 2 (≈ 3.63 µM) | 5 | 10 | 0.5 (≈ 0.908 µM) | 0.05 (≈ 0.0908 µM) |
